Results published in patent US20040209937A1, “Treatment of excessive osteolysis with indolinone compounds” (SUGEN, INC., priority 2003, published 2004).
Entries after “also recorded” stand apart in the source; their conditions may differ.

Legend:
[1] = biological target: T1, human CSF1R (Homo sapiens, UniProt P07333); assay: CSF1R phosphorylation in 3T3-huCSF1R cells (p-CSF1R Western blot after M-CSF stimulation); assay type: cell-based; details: M-CSF stimulated, FIG. 1
T1 construct: expressed in transfected cells; host or cells: NIH3T3 (3T3-huCSF1R)
Experimental: Cells were lysed immediately after stimulation and lysates spun at 4° C. for 20 mins. Supernatant was transferred to new microfuge tubes. For each sample, 500 μg of total protein was immunoprecipitated overnight with a rabbit polyclonal antibody to bead-conjugated human CSF1R (Santa Cruz Biotechnology, CA). A p-CSF1R Western blot was then performed, using anti-phospho-CSF1R (Tyr723) antibody (Cell Signaling Technology, Beverly, Mass.) at 1:1000 dilution.

[2] = tested on: osteoclast development; assay: Murine osteoclast development in vitro (bone marrow cells + M-CSF and RANKL, TRAP quantitation); assay type: cell-based, mice
Experimental: Bone marrow cells were isolated from female Balb/c mice and cultured either in medium alone or with addition of 10 ng/ml murine M-CSF and 100 ng/ml murine RANK ligand (RANKL) from day 0 to induce osteoclast development. […] Osteoclast development on day 7 was assessed by colorimetric quantitation of tartrate resistant acid phosphatase activity (TRAP) as well as counting TRAP positive cells with >3 nuclei.
TRAP staining and quantitation were performed at day 6.

[3] = tested on: 435/HAL-luc breast cancer bone metastases; assay: 435/HAL-luc experimental bone metastasis model, bioluminescence imaging of tumor growth; assay type: in vivo, mice
Experimental: The MDA-MB-435-HAL-luc breast cancer xenograft model was used to confirm significant inhibition of the growth of breast cancer bone metastases. The presence of live tumor cells was monitored by bioluminescence imaging with the Xenogen IVIS™ system.
The human breast carcinoma cell line 435/HAL was obtained (Pharmacia Corp., St. Louis, Mo.). […] Stable transfection of 435/HAL cells with luciferase (light emitting enzyme of firefly Photinus pyralis) was then performed. The cells were cotransfected with pGL3-control (Promega, Madison, Wis.) and pTK-Hygro (Clontech, Palo Alto, Calif.) at a 1:4 ratio using Lipofectamine 2000 (Invitrogen, Carlsbad, Calif.). Cells were maintained in Hygromycin (200 μg/ml) (Invitrogen) and resistant colonies isolated by ring cloning. Hygro-resistant colonies were screened for luciferase expression using Promega brite-glo reagent, normalized as RLU/μg protein. A subclone with the highest luciferase activity was selected, which we refer to as ‘435/HAL-luc.’ […]
Mice were injected intraperitoneally with 150 mg/kg of luciferin (Xenogen Corp., Alameda, Calif.), followed by anesthetization with Ketamine/Xylazine five minutes later. […] Briefly, mice were placed on the temperature-controlled bed of the imaging chamber and a gray-scale whole body image of the ventral side of the mice was captured, followed by an overlay of a bioluminescence map representing the spatial distribution of photons detected from cleaved luciferin in the cancer cells expressing luciferase. […] The bioluminescent signal was quantified by counting the pixels within the area drawn around each site of photon emission, using a customized version of the IGOR Pro version 4.0 Software (WaveMetrics, Inc., Lake Oswego, Oreg.) called Living Image version 2.11 (Xenogen Corporation, Alameda, Calif.). The sum of all detected photon counts within a region of interest containing the entire cancer lesion was determined. For evaluation of tumor growth inhibition, the Student's t test was used to assess differences in photon emission readings between treated and control groups (p<0.05 was considered significant). […]

[4] = tested on: serum pyridinoline (PYD); assay: Serum PYD ELISA in mice bearing 435/HAL-luc bone metastases (osteolysis); assay type: in vivo
Text: Athymic mice were inoculated with 3×10^6 435/HAL-luc cells into the left ventricle of the heart on day 0. Twenty days later, mice were imaged using the IVIS™ imaging system and placed into two matched groups of 16 mice based on photon emission, a measure of bioluminescence of the cancer. […] Mice were imaged approximately once a week. […] The femur, mandible and spines were collected from mice treated with either compound 1 or its vehicle, and fixed in Streck's Tissue Fixative prior to bone density scanning and histological analysis. Serum was also collected for measurement of collagen breakdown product pyridinoline (PYD) in the circulation.
Serum PYD ELISA: The parental breast carcinoma line MDA-MB-435, is very well characterized as having osteolytic activity (32). […] Serum samples were collected, aliquoted and frozen at −80° C. until analysis. Serum PYD was measured using a competitive enzyme immunoassay kit following the manufacturer's protocol (Serum PYD, Quidel 8019, San Diego, Calif.). Samples were measured in duplicate.

T1 sequence (P07333 20-972): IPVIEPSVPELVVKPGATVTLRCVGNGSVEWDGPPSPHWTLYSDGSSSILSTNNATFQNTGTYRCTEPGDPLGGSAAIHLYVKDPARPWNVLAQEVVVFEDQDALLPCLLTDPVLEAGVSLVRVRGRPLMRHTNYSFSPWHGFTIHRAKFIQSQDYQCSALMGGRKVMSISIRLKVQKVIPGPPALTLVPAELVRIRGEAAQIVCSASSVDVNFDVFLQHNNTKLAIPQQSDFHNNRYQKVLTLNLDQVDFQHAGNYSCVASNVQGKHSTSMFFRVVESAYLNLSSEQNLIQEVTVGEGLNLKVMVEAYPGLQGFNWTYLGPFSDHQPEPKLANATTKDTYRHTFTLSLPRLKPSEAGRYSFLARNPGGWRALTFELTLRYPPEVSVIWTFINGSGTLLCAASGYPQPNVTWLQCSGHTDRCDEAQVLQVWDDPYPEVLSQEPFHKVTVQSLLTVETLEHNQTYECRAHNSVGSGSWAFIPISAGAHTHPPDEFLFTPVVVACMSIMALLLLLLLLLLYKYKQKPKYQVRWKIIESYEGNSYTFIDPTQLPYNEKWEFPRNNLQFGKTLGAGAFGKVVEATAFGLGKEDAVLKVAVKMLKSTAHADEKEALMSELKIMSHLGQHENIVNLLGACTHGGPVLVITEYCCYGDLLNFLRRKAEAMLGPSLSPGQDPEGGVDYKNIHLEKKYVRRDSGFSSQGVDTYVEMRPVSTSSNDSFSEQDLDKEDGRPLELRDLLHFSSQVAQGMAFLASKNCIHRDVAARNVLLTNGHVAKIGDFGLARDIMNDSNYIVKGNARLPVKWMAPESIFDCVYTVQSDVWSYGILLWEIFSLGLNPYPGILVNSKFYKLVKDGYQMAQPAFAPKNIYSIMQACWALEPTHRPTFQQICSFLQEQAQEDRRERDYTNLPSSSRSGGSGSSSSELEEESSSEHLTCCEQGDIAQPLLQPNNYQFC

CCN(CC)CCNC(=O)c1c(C)[nH]c(C=C2C(=O)Nc3ccc(F)cc32)c1C [compound 1, 5-(5-Fluoro-2-oxo-1,2-dihydro-indol-3-ylidenemethyl)-2,4-dimethyl-1H-pyrrole-3-carboxylic acid (2-diethylamino-ethyl)-amide]
inhibition of CSF1R phosphorylation [1]: inhibits CSF1R phosphorylation in a dose-dependent manner; also recorded: inhibits phosphorylation of M-CSF receptors
effect of time of addition of compound (D0, D2 or D4) on osteoclast development ([2]; 100 nM and 10 nM, TRAP at day 6, FIG. 2b): the later precursor cells are exposed to compound 1, the less inhibitory effect the compound exhibits; also recorded: inhibits an early stage of osteoclast development, but not later stages
concentrations at which development of osteoclasts is inhibited ([2]; Balb/c bone marrow cells, M-CSF 10 ng/ml + RANKL 100 ng/ml, day 7, TRAP, FIG. 2a): 10 to 100 nM
inhibition of osteoclast development ([2]; in vitro, FIG. 2a): inhibits osteoclast development in a dose-dependent manner
live tumor / growth of breast cancer metastases by bioluminescence imaging ([3]; MDA-MB-435-HAL-luc xenograft model): significant reduction in live tumor; also recorded: inhibits the growth of breast cancer metastases
photon count emission from the mouse bones ([3]; at both doses (80 or 40 mg per kg once daily by gavage), FIG. 3): greatly decreased
inhibition of tumor growth in bone (photon emission, long bones and mandibles) ([3]; day 41, 80 or 40 mg per kg once daily by gavage, p=0.001): 89%
serum PYD mean value ([4]; 80 mg per kg): 1.3 ± 0.16 ng/mL
reduction of serum PYD levels compared to vehicle treated mice ([4]; 14 compound 1 treated vs 12 vehicle treated mice, p=0.047): 30%
osteolysis as measured by pyridinoline levels ([4]; mice with breast cancer metastases to bone, FIG. 4): less osteolysis
